For three compounds, MIC results are on record in patent publication US4364958A, “1-Substituted-3-cycloalkyl-sulfonyl-pyrrolidine-2,5-dione derivatives and fungicidal compositions thereof” (Chinoin Gyogyszer es Vegyeszeti Termekek Gyara Rt., priority 1979, dated 1982).

What all share (assay): minimal inhibitory concentration in Sabouraud medium
Holding throughout (type): cell-based

In assay [1] the test system is Penicillium digitatum CBS.31948. Particulars: Penicillium digitatum. An excerpt:
Penicillium digitatum CBS.31948
(§1) As a medium Saboroud medium was employed.

Assay [2] relates to Aspergillus niger CBS.12648. Conditions: Aspergillus niger.
Text: Aspergillus niger CBS.12648
as §1

Assay [3] deals with Saccharomyces cerevisiae OKI.1282. Particulars: Saccharomyces cerevisiae.
Text: Saccharomyces cerevisiae OKI.1282
as §1

The next assay relates to Candida albicans CBS.562. Conditions: Candida albicans.
Text: Candida albicans CBS.562 "2"
as §1

For assay [4], the system named is Trichophyton rubrum CBS.30338. Conditions: Trichophyton rubrum.
Text: Trichophyton rubrum CBS.30338
as §1

For assay [5], the system named is Sporotrichum schenkii CBS.34035. Particulars: Sporotrichum.
Text: Sporotrichum schenkii CBS.34035
as §1

The subject of assay [6] is Trichophyton mentagrophytes CBS.50148. Particulars: Trichophyton mentagrophytes, read-out: minimal inhibitory concentration.
Text: Trichophyton mentagrophytes CBS.50148
as §1

Assay [7] deals with Epidermophyton floccosum OKI/IV. Particulars: Epidermophyton floccosum, read-out: minimal inhibitory concentration.
Text: Epidermophyton floccosum OKI/IV.
as §1

Values after ≈ are worked out from the molar mass of the structure shown. Read-outs that look alike come from different tables or passages of the source.

Consider `Cc1ccccc1N1C(=O)CC(S(=O)(=O)C2CCCCC2)C1=O` (stereo not drawn) [1-(o-tolyl)-3-cyclohexyl-sulfonyl-pyrrolidine-2,5-dione], for which the MIC in assay [1] (CBS.31948, 72 h, 72 hours) turned out to be 10 µg/mL (≈ 29.8 µM); in assay [1] (CBS.31948, 144 h, 144 hours), 50 µg/mL (≈ 149 µM); in assay [1] (CBS.31948, 288 h, 288 hours), 50 µg/mL (≈ 149 µM); in assay [2] (CBS.12648, 72 h, 72 hours), 100 µg/mL (≈ 298 µM); in assay [2] (CBS.12648, 144 h, 144 hours), 150 µg/mL (≈ 447 µM); in assay [2] (CBS.12648, 288 h, 288 hours), 150 µg/mL (≈ 447 µM). Moreover, the MIC in assay [3] (OKI.1282, 24 h, 24 hours) was found to be 25 µg/mL (≈ 74.5 µM); in assay [3] (OKI.1282, 48 h, 48 hours), 25 µg/mL (≈ 74.5 µM); with Candida albicans CBS.562 (CBS.562, 24 h, 24 hours) it was 75 µg/mL (≈ 224 µM); in the assay with Candida albicans CBS.562 (CBS.562, 48 h, 48 hours) it was 100 µg/mL (≈ 298 µM); in assay [4] (CBS.30338, 72 h, 72 hours), 10 µg/mL (≈ 29.8 µM); in assay [4] (CBS.30338, 144 h, 144 hours), 25 µg/mL (≈ 74.5 µM). Besides, the MIC worked out at 50 µg/mL (≈ 149 µM) in assay [4] (CBS.30338, 288 h, 288 hours); 10 µg/mL (≈ 29.8 µM) in assay [5] (CBS.34035, 72 h, 72 hours); 25 µg/mL (≈ 74.5 µM) in assay [5] (CBS.34035, 144 h, 144 hours); 50 µg/mL (≈ 149 µM) in assay [5] (CBS.34035, 288 h, 288 hours); 10 µg/mL (≈ 29.8 µM) in assay [6] (CBS.50148, 72 h, 72 hours); 25 µg/mL (≈ 74.5 µM) in assay [6] (CBS.50148, 144 h, 144 hours). Also, the MIC in assay [6] (CBS.50148, 288 h, 288 hours) was 25 µg/mL (≈ 74.5 µM); in assay [7] (72 h) it was 5 µg/mL (≈ 14.9 µM); in assay [7] (144 h), 10 µg/mL (≈ 29.8 µM); in assay [7] (288 h), 10 µg/mL (≈ 29.8 µM).
As to `COc1ccc(N2C(=O)CC(S(=O)(=O)C3CCCCC3)C2=O)cc1` (stereo not drawn) [1-(4-Methoxyphenyl)-3-cyclohexyl-sulfonyl-pyrrolidine-2,5-dione], the MIC in assay [1] (CBS.31948, 72 h, 72 hours) was determined as 100 µg/mL (≈ 285 µM); in assay [1] (CBS.31948, 144 h, 144 hours), 100 µg/mL (≈ 285 µM); in assay [1] (CBS.31948, 288 h, 288 hours), 150 µg/mL (≈ 427 µM); in assay [2] (CBS.12648, 72 h, 72 hours), 75 µg/mL (≈ 213 µM); in assay [2] (CBS.12648, 144 h, 144 hours), 100 µg/mL (≈ 285 µM); in assay [2] (CBS.12648, 288 h, 288 hours) it was 150 µg/mL (≈ 427 µM). Also, the MIC was found to be 25 µg/mL (≈ 71.1 µM) in assay [3] (OKI.1282, 24 h, 24 hours); 50 µg/mL (≈ 142 µM) in assay [3] (OKI.1282, 48 h, 48 hours); 50 µg/mL (≈ 142 µM) against Candida albicans CBS.562 (CBS.562, 24 h, 24 hours); 150 µg/mL (≈ 427 µM) against Candida albicans CBS.562 (CBS.562, 48 h, 48 hours); 10 µg/mL (≈ 28.5 µM) in assay [4] (CBS.30338, 72 h, 72 hours); 10 µg/mL (≈ 28.5 µM) in assay [4] (CBS.30338, 144 h, 144 hours). For the same compound, the MIC in assay [4] (CBS.30338, 288 h, 288 hours) was 10 µg/mL (≈ 28.5 µM); in assay [5] (CBS.34035, 72 h, 72 hours), 5 µg/mL (≈ 14.2 µM); in assay [5] (CBS.34035, 144 h, 144 hours), 10 µg/mL (≈ 28.5 µM); in assay [5] (CBS.34035, 288 h, 288 hours), 10 µg/mL (≈ 28.5 µM); in assay [6] (CBS.50148, 72 h, 72 hours), 2.5 µg/mL (≈ 7.11 µM); in assay [6] (CBS.50148, 144 h, 144 hours) it was 75 µg/mL (≈ 213 µM). For the same compound, the MIC in assay [6] (CBS.50148, 288 h, 288 hours) was 100 µg/mL (≈ 285 µM); in assay [7] (72 h) it was 5 µg/mL (≈ 14.2 µM); in assay [7] (144 h) it was 25 µg/mL (≈ 71.1 µM); in assay [7] (288 h), 75 µg/mL (≈ 213 µM).
As to `O=C1CC(S(=O)(=O)C2CCCCC2)C(=O)N1c1ccccc1Cl` (stereo not drawn) [1-(2-chlorophenyl)-3-cyclohexyl-sulfonyl-pyrrolidine-2,5-dione], the MIC in assay [1] (CBS.31948, 72 h, 72 hours) amounted to 25 µg/mL (≈ 70.3 µM); in assay [1] (CBS.31948, 144 h, 144 hours), 50 µg/mL (≈ 141 µM); in assay [1] (CBS.31948, 288 h, 288 hours), 50 µg/mL (≈ 141 µM); in assay [2] (CBS.12648, 72 h, 72 hours), 50 µg/mL (≈ 141 µM); in assay [2] (CBS.12648, 144 h, 144 hours) it was 150 µg/mL (≈ 422 µM); in assay [2] (CBS.12648, 288 h, 288 hours), 150 µg/mL (≈ 422 µM). Besides, the MIC in assay [3] (OKI.1282, 24 h, 24 hours) is 25 µg/mL (≈ 70.3 µM); in assay [3] (OKI.1282, 48 h, 48 hours) it was 75 µg/mL (≈ 211 µM); in the assay on Candida albicans CBS.562 (CBS.562, 24 h, 24 hours), 50 µg/mL (≈ 141 µM); against Candida albicans CBS.562 (CBS.562, 48 h, 48 hours), 50 µg/mL (≈ 141 µM); in assay [4] (CBS.30338, 72 h, 72 hours), 2.5 µg/mL (≈ 7.03 µM); in assay [4] (CBS.30338, 144 h, 144 hours) it was 10 µg/mL (≈ 28.1 µM). Also, the MIC in assay [4] (CBS.30338, 288 h, 288 hours) was 10 µg/mL (≈ 28.1 µM); in assay [5] (CBS.34035, 72 h, 72 hours) it was 10 µg/mL (≈ 28.1 µM); in assay [5] (CBS.34035, 144 h, 144 hours) it was 50 µg/mL (≈ 141 µM); in assay [5] (CBS.34035, 288 h, 288 hours) it was 50 µg/mL (≈ 141 µM); in assay [6] (CBS.50148, 72 h, 72 hours), 2.5 µg/mL (≈ 7.03 µM); in assay [6] (CBS.50148, 144 h, 144 hours) it was 5 µg/mL (≈ 14.1 µM). Moreover, the MIC worked out at 5 µg/mL (≈ 14.1 µM) in assay [6] (CBS.50148, 288 h, 288 hours); 2.5 µg/mL (≈ 7.03 µM) in assay [7] (72 h); 5 µg/mL (≈ 14.1 µM) in assay [7] (144 h); 10 µg/mL (≈ 28.1 µM) in assay [7] (288 h).
